Columns and labels:
IKZF2 (Helios) = assay: IKZF2 reporter degradation assay (HEK 293T IKZF2-mNeonGreen reporter cell line); assay type: cell-based, human; conditions: 1 μM compound, 24 hour incubation, HEK 293T IKZF2-mNeonGreen reporter
Procedure, shortened: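 HEK 293T lines stably expressing each IKZF-GGGGS×3-mNeonGreen-P2A-mScarlet reporter, 4000 cells/well in FluoroBrite medium, treated with compound (≤0.5% DMSO) for 24 h at 37 °C. Imaging measured percent mNeonGreen-positive cells, with mScarlet used for segmentation; DC50 from four-parameter logistic fit.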

[1] = molecular target: human E3 ligase component cereblon (CRBN) (Homo sapiens (Human), UniProt Q96SW2); assay: Cereblon (CRBN) target engagement, NanoBRET TE Intracellular E3 Ligase Assay in transfected HEK-293T cells; conditions: read-out: CRBN Binding EC50
Chain of human E3 ligase component cereblon (CRBN) (Q96SW2 whole entry): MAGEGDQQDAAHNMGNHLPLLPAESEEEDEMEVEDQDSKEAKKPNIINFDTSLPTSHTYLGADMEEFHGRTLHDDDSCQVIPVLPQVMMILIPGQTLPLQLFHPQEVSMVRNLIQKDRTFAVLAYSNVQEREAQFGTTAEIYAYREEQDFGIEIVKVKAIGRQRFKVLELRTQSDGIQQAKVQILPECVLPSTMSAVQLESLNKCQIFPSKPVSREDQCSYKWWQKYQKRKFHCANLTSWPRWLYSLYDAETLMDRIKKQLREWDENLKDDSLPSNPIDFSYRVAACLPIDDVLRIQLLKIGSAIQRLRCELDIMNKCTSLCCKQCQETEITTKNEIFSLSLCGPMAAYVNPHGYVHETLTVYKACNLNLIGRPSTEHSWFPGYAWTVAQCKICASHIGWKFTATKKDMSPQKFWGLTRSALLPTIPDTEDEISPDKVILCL
Chain of human E3 ligase component cereblon (CRBN) (Q16531 whole entry partner): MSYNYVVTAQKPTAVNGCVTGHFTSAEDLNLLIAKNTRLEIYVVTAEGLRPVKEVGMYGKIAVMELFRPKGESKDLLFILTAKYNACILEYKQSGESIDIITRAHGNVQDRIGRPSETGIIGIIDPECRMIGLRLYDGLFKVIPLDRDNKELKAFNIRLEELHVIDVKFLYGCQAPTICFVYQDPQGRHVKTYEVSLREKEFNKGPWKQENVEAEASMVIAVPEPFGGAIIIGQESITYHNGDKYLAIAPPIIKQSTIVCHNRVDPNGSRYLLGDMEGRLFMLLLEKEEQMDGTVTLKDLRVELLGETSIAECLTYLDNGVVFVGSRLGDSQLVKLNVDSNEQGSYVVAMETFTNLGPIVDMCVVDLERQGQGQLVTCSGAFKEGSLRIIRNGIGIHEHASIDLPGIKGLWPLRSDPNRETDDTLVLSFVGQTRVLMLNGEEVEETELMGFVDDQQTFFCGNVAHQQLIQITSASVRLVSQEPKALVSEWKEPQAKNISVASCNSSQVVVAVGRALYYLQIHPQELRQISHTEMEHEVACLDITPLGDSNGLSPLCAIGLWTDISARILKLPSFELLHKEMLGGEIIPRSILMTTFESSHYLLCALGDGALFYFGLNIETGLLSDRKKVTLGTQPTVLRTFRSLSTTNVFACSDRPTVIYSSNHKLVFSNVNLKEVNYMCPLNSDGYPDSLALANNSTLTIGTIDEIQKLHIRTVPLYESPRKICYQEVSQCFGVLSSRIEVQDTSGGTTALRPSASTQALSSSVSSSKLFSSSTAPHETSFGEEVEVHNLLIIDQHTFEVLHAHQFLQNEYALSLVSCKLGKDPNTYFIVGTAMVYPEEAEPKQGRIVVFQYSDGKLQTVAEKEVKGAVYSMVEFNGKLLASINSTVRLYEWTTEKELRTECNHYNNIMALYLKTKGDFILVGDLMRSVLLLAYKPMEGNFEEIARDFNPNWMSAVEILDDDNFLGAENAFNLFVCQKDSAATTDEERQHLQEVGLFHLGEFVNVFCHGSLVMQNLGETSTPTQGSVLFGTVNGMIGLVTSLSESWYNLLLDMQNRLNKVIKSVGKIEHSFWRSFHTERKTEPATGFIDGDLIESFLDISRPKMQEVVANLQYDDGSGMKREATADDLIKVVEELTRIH
Procedure, shortened: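 Live HEK-293T cells co-transfected overnight with NanoLuc-CRBN (CRBN at NanoLuc C-terminus) and DDB1 vectors (10:990 ng) were given CRBN tracer and an 11-point compound series for 2 h at 37° C. BRET read at 450/610 nm with extracellular NanoLuc inhibitor present; IC50 from four-parameter logistic fit.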

| SMILES | IKZF2 % Degradation @ 1 μM (IKZF2 (Helios)) | EC50 [1] |
| --- | --- | --- |
| N#Cc1cc(Cl)ccc1C1CN([C@@H]2CCCC[C@@H]2Oc2ccc3c(c2)CN(C2CCC(=O)NC2=O)C3=O)C1 (mixture of isomers) [Compound 100, Rac-5-chloro-2-(1-((cis)-2-((2-(2,6-dioxopiperidin-3-yl)-1-oxoisoindolin-5-yl)oxy)cyclohexyl)azetidin-3-yl)benzonitrile] | <15% | 0.025 µM |
| O=C1CCC(N2Cc3cc(O[C@H]4CCCC[C@@H]4N4CC(c5ccc(F)cc5)C4)ccc3C2=O)C(=O)N1 (single isomer, unassigned) [Compound 50] | 73.6% | 0.004 µM |
| O=C1CCC(N2Cc3cc(O[C@H]4CCCC[C@@H]4N4CC(c5ccccc5)C4)c(F)cc3C2=O)C(=O)N1 (single isomer, unassigned) [Compound 52] | 90.5% | 0.011 µM |
| O=C1CCC(N2Cc3c(ccc(O[C@H]4CCCC[C@@H]4N4CC(c5ccccc5)C4)c3F)C2=O)C(=O)N1 (single isomer, unassigned) [Compound 65] | 75.1% | 0.052 µM |
| O=C1CCC(N2Cc3c(ccc(O[C@H]4CCCC[C@@H]4N4CC(c5ccccc5)C4)c3F)C2=O)C(=O)N1 (single isomer, unassigned) [Compound 66] | 74.8% | 0.024 µM |
| O=C1CCC(N2Cc3cc(O[C@H]4CCCC[C@@H]4N4CC(c5cccc(OC(F)(F)F)c5)C4)ccc3C2=O)C(=O)N1 (stereo partly drawn) [Compound 35, 3-(1-oxo-5-(((1S,2S)-2-(3-(3-(trifluoromethoxy)phenyl)azetidin-1-yl)cyclohexyl)oxy)isoindolin-2-yl)piperidine-2,6-dione] | 84.6% | 0.017 µM |
| O=C1CCC(N2Cc3cc(O[C@H]4CCCC[C@@H]4N4CC(c5ccccc5OC(F)(F)F)C4)ccc3C2=O)C(=O)N1 (stereo partly drawn) [Compound 36, 3-(1-oxo-5-(((1S,2S)-2-(3-(2-(trifluoromethoxy)phenyl)azetidin-1-yl)cyclohexyl)oxy)isoindolin-2-yl)piperidine-2,6-dione] | 82.3% | 0.031 µM |
| O=C1CCC(N2Cc3cc(O[C@H]4CCCC[C@@H]4N4CC(c5cccc(F)c5F)C4)ccc3C2=O)C(=O)N1 (stereo partly drawn) [Compound 64, 3-(5-(((1S,2S)-2-(3-(2,3-difluorophenyl)azetidin-1-yl)cyclohexyl)oxy)-1-oxoisoindolin-2-yl)piperidine-2,6-dione] | 76.3% | 0.011 µM |
| O=C1CCC(N2Cc3cc(O[C@H]4CCCC[C@@H]4N4CC(c5cccc(F)c5)C4)ccc3C2=O)C(=O)N1 (stereo partly drawn) [Compound 111, 3-(5-(((1S,2S)-2-(3-(3-fluorophenyl)azetidin-1-yl)cyclohexyl)oxy)-1-oxoisoindolin-2-yl)piperidine-2,6-dione] | 76.5% | 0.006 µM |
| O=C1CCC(N2Cc3cc(O[C@H]4CCCC[C@@H]4N4CC(c5ccc(N6CCOCC6)cc5)C4)ccc3C2=O)C(=O)N1 (stereo partly drawn) [Compound 124, 3-(5-(((1S,2S)-2-(3-(4-morpholinophenyl)azetidin-1-yl)cyclohexyl)oxy)-1-oxoisoindolin-2-yl)piperidine-2,6-dione] | 70.2% | 0.002 µM |
| O=C1CC[C@@H](N2Cc3cc(O[C@H]4CCCC[C@@H]4N4CC(c5ccccc5)C4)ccc3C2=O)C(=O)N1 [Compound 125, (R)-3-(1-oxo-5-(((1S,2S)-2-(3-phenylazetidin-1-yl)cyclohexyl)oxy)isoindolin-2-yl)piperidine-2,6-dione] | 83.2% | 0.006 µM |
| O=C1CCC(N2Cc3cc(O[C@H]4CCCC[C@@H]4N4CC(c5ccccc5C(F)(F)F)C4)ccc3C2=O)C(=O)N1 (stereo partly drawn) [Compound 129, 3-(1-oxo-5-(((1S,2S)-2-(3-(2-(trifluoromethyl)phenyl)azetidin-1-yl)cyclohexyl)oxy)isoindolin-2-yl)piperidine-2,6-dione] | 83.8% | 0.017 µM |
| O=C(O)CC(O)(CC(=O)O)C(=O)O.O=C1CCC(N2Cc3cc(O[C@H]4CCCC[C@@H]4N4CC(c5ccccc5)C4)ccc3C2=O)C(=O)N1 (stereo partly drawn) [Compound 130, 3-(1-oxo-5-(((1S,2S)-2-(3-phenylazetidin-1-yl)cyclohexyl)oxy)isoindolin-2-yl)piperidine-2,6-dione 2-hydroxypropane-1,2,3-tricarboxylate] | 84.8% | 0.004 µM |
| O=C1CCC(N2Cc3cc(O[C@H]4CCCCC[C@@H]4N4CC(c5ccccc5)C4)ccc3C2=O)C(=O)N1 (stereo partly drawn) [Compound 131, 3-(1-oxo-5-(((1S,2S)-2-(3-phenylazetidin-1-yl)cycloheptyl)oxy)isoindolin-2-yl)piperidine-2,6-dione] | 92.3% | 0.011 µM |
| O=C1CCC(N2Cc3cc(O[C@H]4CCCC[C@@H]4N4CC(c5ccc(O)cc5)C4)ccc3C2=O)C(=O)N1 (stereo partly drawn) [Compound 132, 3-(5-(((1S,2S)-2-(3-(4-hydroxyphenyl)azetidin-1-yl)cyclohexyl)oxy)-1-oxoisoindolin-2-yl)piperidine-2,6-dione] | 77.2% | 0.011 µM |
| O=C1CCC(N2Cc3cc(O[C@H]4CCCC[C@@H]4N4CC(c5ccccc5O)C4)ccc3C2=O)C(=O)N1 (stereo partly drawn) [Compound 133, 3-(5-(((1S,2S)-2-(3-(2-hydroxyphenyl)azetidin-1-yl)cyclohexyl)oxy)-1-oxoisoindolin-2-1)piperidine-2,6-dione] | 56.4% | 0.014 µM |
| O=C1CCC(N2Cc3cc(O[C@H]4CCCC[C@@H]4N4CC(c5cccc(O)c5)C4)ccc3C2=O)C(=O)N1 (stereo partly drawn) [Compound 134, 3-(5-(((1S,2S)-2-(3-(3-hydroxyphenyl)azetidin-1-yl)cyclohexyl)oxy)-1-oxoisoindolin-2-yl)piperidine-2,6-dione] | 75% | 0.012 µM |
